Laboratory results: ChEMBL document CHEMBL1201862, “PubChem BioAssay data set” (2004)
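Interpolation was linear, between the two tested concentrations surrounding the appropriate level; five concentrations were tested over 48 hours in 96-well plates. At the GI50, growth is halved.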 The source made the active and inactive calls. No stated cut-off is given here; in the data, active = GI50 up to about 1.1 µM and inactive = higher.

How the values were obtained:
Assay in all cases: NCI anticancer screen, dose series, 48 h
[1] = system: 786-0
[2] = system: A498
[3] = system: ACHN
[4] = system: CAKI-1
[5] = system: COLO 205
[6] = system: EKVX
[7] = system: HCT-116
[8] = system: HCT-15
[9] = system: NCI-H226
[10] = system: OVCAR-3
[11] = system: OVCAR-4
[12] = system: OVCAR-5
[13] = system: SF-295
[14] = system: SF-539
[15] = system: SK-MEL-2
[16] = system: SK-MEL-5
[17] = system: SW-620
[18] = system: TK-10
[19] = system: MDA-MB-435
[20] = system: T47D

Compound | GI50 [1] | GI50 [2] | GI50 [3] | GI50 [4] | GI50 [5] | GI50 [6] | GI50 [7] | GI50 [8] | GI50 [9] | GI50 [10] | GI50 [11] | GI50 [12] | GI50 [13] | GI50 [14] | GI50 [15] | GI50 [16] | GI50 [17] | GI50 [18] | GI50 [19] | GI50 [20]
CCOC(=O)COc1ccccc1/C=C1\CCC(CN(C)C)C1=O (stereo unspecified) | 2.94 µM (inactive) | 17.2 µM (inactive) | 13.9 µM (inactive) | 3.02 µM (inactive) | 3.9 µM (inactive) | 13.8 µM (inactive) | 3.4 µM (inactive) | 3.24 µM | 17.5 µM (inactive) | 7.82 µM (inactive) | 16.5 µM (inactive) | 17.9 µM (inactive) | 16.1 µM (inactive) | 11.9 µM (inactive) | 10.6 µM (inactive) | 10.4 µM (inactive) | 2.55 µM (inactive) | 12.9 µM (inactive) | – | –
CCOC(=O)C(=O)Nc1ccccc1C(C)C | > 100 µM (inactive) | > 100 µM (inactive) | > 100 µM (inactive) | > 100 µM (inactive) | > 100 µM (inactive) | > 100 µM (inactive) | > 100 µM (inactive) | > 100 µM | > 100 µM (inactive) | > 100 µM (inactive) | > 100 µM (inactive) | > 100 µM (inactive) | > 100 µM (inactive) | > 100 µM (inactive) | > 100 µM (inactive) | > 100 µM (inactive) | > 100 µM (inactive) | > 100 µM (inactive) | – | –
COc1ccc2[nH]c3c([N+](=O)[O-])ccc(NCCCN(C)C)c3/c(=N/CCCN(C)C)c2c1 | 0.94 µM (active) | – | – | 2.07 µM (inactive) | – | 2.55 µM (inactive) | – | 1.53 µM | – | – | 0.914 µM (active) | – | 1.63 µM (inactive) | – | – | 1.9 µM (inactive) | 1.63 µM (inactive) | 2.36 µM (inactive) | 7.62 µM (inactive) | > 10 µM (inactive)
COC(=O)C1=CC2C=CC(C1C(=O)OC)C1C(C(=O)OC)=C(C(=O)OC)C(C(=O)OC)=C(C(=O)OC)C21OC (stereo unspecified) | > 100 µM (inactive) | > 100 µM (inactive) | > 100 µM (inactive) | > 100 µM (inactive) | > 100 µM (inactive) | > 100 µM (inactive) | > 100 µM (inactive) | > 100 µM | > 100 µM (inactive) | > 100 µM (inactive) | > 100 µM (inactive) | > 100 µM (inactive) | > 100 µM (inactive) | > 100 µM (inactive) | > 100 µM (inactive) | > 100 µM (inactive) | > 100 µM (inactive) | > 100 µM (inactive) | – | –
CSc1nc(-c2cc3c(c(SC)n2)CCCCC3)cc2c1CCCCC2 | > 100 µM (inactive) | > 100 µM (inactive) | > 100 µM (inactive) | > 100 µM (inactive) | > 100 µM (inactive) | > 100 µM (inactive) | > 100 µM (inactive) | > 100 µM | > 100 µM (inactive) | > 100 µM (inactive) | > 100 µM (inactive) | > 100 µM (inactive) | > 100 µM (inactive) | > 100 µM (inactive) | > 100 µM (inactive) | > 100 µM (inactive) | > 100 µM (inactive) | > 100 µM (inactive) | > 100 µM (inactive) | –
CN1CCc2c(sc3nc(Nc4ccccc4)n(N)c(=O)c23)C1 | > 100 µM (inactive) | > 100 µM (inactive) | > 100 µM (inactive) | > 100 µM (inactive) | 42.8 µM (inactive) | > 100 µM (inactive) | 72.3 µM (inactive) | > 100 µM | > 100 µM (inactive) | > 100 µM (inactive) | – | > 100 µM (inactive) | 63.1 µM (inactive) | > 100 µM (inactive) | > 100 µM (inactive) | 77.3 µM (inactive) | – | > 100 µM (inactive) | – | > 100 µM (inactive)
O=S1(=O)N2CN3CN(C2)CN1C3 | 30.5 µM (inactive) | 223 µM (inactive) | 108 µM (inactive) | 205 µM (inactive) | 25.4 µM (inactive) | 370 µM (inactive) | 21.6 µM (inactive) | 23.2 µM | 28.1 µM (inactive) | > 10 µM (inactive) | 28.7 µM (inactive) | 208 µM (inactive) | 23.8 µM (inactive) | > 100 µM (inactive) | 141 µM (inactive) | 32.4 µM (inactive) | 23.7 µM (inactive) | 286 µM (inactive) | – | –
O=C1/C(=C/c2ccc([N+](=O)[O-])cc2)CCCc2ccccc21 | > 100 µM (inactive) | – | > 100 µM (inactive) | > 100 µM (inactive) | > 100 µM (inactive) | 48.6 µM (inactive) | > 100 µM (inactive) | 69.2 µM | > 100 µM (inactive) | > 100 µM (inactive) | > 100 µM (inactive) | > 100 µM (inactive) | 63.5 µM (inactive) | 76.2 µM (inactive) | > 100 µM (inactive) | – | > 100 µM (inactive) | > 100 µM (inactive) | > 100 µM (inactive) | –
